Assays:
Aire KO mice = test: Basal tear secretion (phenol red thread) in Aire KO dry eye mice; type: in vivo, mouse; details: day 15, 4 μM topical 3x per day for 14 days
Experimental: To determine the impact of lacripep on physiological (basal) tear secretion, lacripep (4 μM) or phosphate buffered saline (PBS, control) was topically applied to Aire KO corneas 3 times (3×) per day for 14 consecutive days (from 5 to 7 wk of age) and tear production was measured at day 0, 7 and 15 (FIG. 1A).
All procedures were approved by the UCSF Institutional Animal Care and Use Committee (IACUC) and adhered to the NIH Guide for the Care and Use of Laboratory Animals (Approval number: 332AN089075-02). Wild type (WT) and Aire-deficient mice on the BALB/c background (BALB/c Aire KO) were the gift of Mark Anderson, University of California, San Francisco. Adult female mice (aged between 5 and 7 weeks) were used in all experiments. […] Appropriate sample size was calculated using power calculations. […]
Mice were anesthetized with isoflurane and basal tear secretion was then measured using a Zone-Quick phenol red thread (as indicated by the length of the tear-absorbed region in 15 seconds). Stimulated tear secretion was measured after 4.5 mg/kg of pilocarpine diluted in saline was injected into the peritoneum (i.p.). Ten minutes later, mice were anesthetized with isoflurane and tear secretion was measured using a Zone-Quick phenol red thread (Showa Yakuhin Kako Co. Ltd., Tokyo, Japan).

Aire KO corneas = test: RNAseq of corneas at day 7 of treatment; type: in vivo, mouse
Text: To identify potential downstream targets of lacripep treatment, we elucidated changes in corneal gene expression and signaling pathways at the day 7 time point through RNAseq. Principal component analysis (PCA) identified major transcriptional differences between each treatment group (FIG. 6A). […] Subsequent analysis yielded enriched gene sets that were highly associated with neuronal gene ontology (GO) terms e.g., synapse (P=3.6E-47), visual perception (P=5.8E-49), neuron projection (P=2.1E-29), and response to stimulus (P=1.8E-19) (FIG. 4C). These included cohorts of genes expressed by nerves and/or corneal epithelial cells involved in axonogenesis and axon guidance e.g., Neurod2, Cntn4, ephrins (Epha5, Epha7, Epha8) and semaphorins (Sema6a, Sema7a); synapse formation and function e.g., synaptic vesicle membrane proteins (Syt1; synaptophysin-Syp) and synaptic vesicle exocytosis regulators (Rims1, Rims2); neuronal signaling e.g., GABA receptors (Gabra2, Gabrr1), glutamate receptors (Gria2, Gria4), and G protein signal-transducing mediators (Gnb3, Gng4); and neurotransmitter transport e.g. glutamate transporters (Slc17a7) and GABA transporters (Slc6a1, Slc32a1) (FIG. 4D). Analysis of corneas treated with lacripep or PBS versus untreated corneas further emphasized the ability of lacripep and not PBS alone to induce transcription of neuronal gene sets (FIG. 6B).
Total RNA was collected at 7 days of treatment and purified using RNAaqueous and DNase reagents according to the manufacturer's instructions (Ambion, Houston, TX, USA). RNA quality was assessed using the Agilent 2100 BioAnalyzer, and samples with an RNA integrity ≥6.0 were included for RNA sequencing. The synthesis of mRNA libraries was performed by Novogene Corporation Inc. according to their protocols. RNA library was formed by ploy A capture (or rRNA removal), RNA fragmentation by covaris or enzyme digestion and reverse transcription of cDNA. Sequencing was performed as described below.
RNA libraries were sequenced on an Illumina NovaSeq 6000. Depths of 20-30 million 150 bp paired-end reads were generated for each sample. Quality control metrics were performed on raw sequencing reads using the FASTQC v0.11.9 application (76). Reads were mapped to the UCSC Mus musculus genome mm 10 (NCBI build v38) using Spliced Transcripts Alignment to a Reference (STAR) (77). At least 90% of the reads were successfully mapped. Reads aligning to the mm 10 build were quantified against Ensembl Transcripts release 93 using Partek® E/M (Partek's optimization of the expectation maximization algorithm, Partek Inc, St. Louis, MO, USA), which disregarded any reads that aligned to more than one location or more than one gene at a single location. […]

[1] = lacripep- versus PBS-treated corneas, Padj<0.05, 2-fold change cutoff

## Ac-KQFIENGSEFAQKLLKKFSLLKPWA-NH2 [lacripep, amino terminus acetylated, carboxyl terminus aminated]
Aire KO mice
  basal tear volumes relative to WT: 83 % of WT
Aire KO corneas; across diseased corneas
  expression of inflammatory mediators (IL1b, interferon response genes): expressed at similar levels in all diseased corneas
Aire KO corneas; compared to WT controls
  expression of T cell markers, T cell response genes and macrophage markers: remained significantly elevated
Aire KO corneas; [1]
  genes downregulated: 15 genes
  genes significantly upregulated: 818 genes
